Results taken from patent publication US20240150340A1, “CDK Inhibitors And Their Use As Pharmaceuticals” (Prelude Therapeutics Incorporated, priority 2022, published 2024).

Legend:
CDK2/Cyclin E2 = target: T1, CDK2/Cyclin E2 (Homo sapiens, UniProt P24941); test: CDK2/CyclinE2 Enzymatic Activity Assay (TR-FRET); type: biochemical; details: ATP 1 mM final, read-out: CDK2_E1 IC50
T1 construct: Recombinant protein complex CDK2/Cyclin E2, expressed from insect cell, was purchased from ProQinase
In short: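 Recombinant insect-cell CDK2/Cyclin E2 (1 nM) phosphorylated ULight-4E-BP1 (50 nM) with 1 mM ATP in HEPES pH 7.4 buffer, after 20 min compound preincubation; MgCl2 (10 mM) started the 45 min reaction at 37° C. Europium anti-phospho-4E-BP1 TR-FRET read; 9-dose IC50 by 4-parameter fit.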

CDK4/Cyclin D1 = target: T2, CDK4/Cyclin D1 (Homo sapiens, UniProt P11802); test: CDK4/CyclinD1 Enzymatic Activity Assay (TR-FRET); type: biochemical; details: ATP 2 mM final, read-out: CDK4_D1 IC50
T2 construct: purchased ProQinase; host or cells: insect cell
T2 sequence (P11802 whole entry): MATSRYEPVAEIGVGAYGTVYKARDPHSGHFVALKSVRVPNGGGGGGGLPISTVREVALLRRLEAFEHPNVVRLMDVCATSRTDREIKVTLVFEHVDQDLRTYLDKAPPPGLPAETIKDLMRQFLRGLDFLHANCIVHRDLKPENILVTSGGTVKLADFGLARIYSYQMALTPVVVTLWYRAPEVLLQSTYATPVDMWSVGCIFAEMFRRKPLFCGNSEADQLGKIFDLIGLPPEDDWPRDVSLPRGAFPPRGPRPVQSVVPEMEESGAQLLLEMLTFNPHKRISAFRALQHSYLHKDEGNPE
T2 sequence (P24385 whole entry partner): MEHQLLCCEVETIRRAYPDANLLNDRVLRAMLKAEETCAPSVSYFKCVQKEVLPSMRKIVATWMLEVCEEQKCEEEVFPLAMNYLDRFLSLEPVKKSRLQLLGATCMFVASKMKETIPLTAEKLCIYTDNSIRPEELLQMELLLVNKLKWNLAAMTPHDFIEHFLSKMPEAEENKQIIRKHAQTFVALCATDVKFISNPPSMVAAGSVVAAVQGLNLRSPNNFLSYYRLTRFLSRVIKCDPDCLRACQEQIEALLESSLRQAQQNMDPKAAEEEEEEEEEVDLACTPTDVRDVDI
In short: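 Insect-cell-expressed CDK4/Cyclin D1 (1 nM) with ULight-4E-BP1 (100 nM) and 2 mM ATP in HEPES pH 7.4; 9-dose 3-fold compound series preincubated 20 min, reaction started with 10 mM MgCl2, 45 min at 37° C. Europium anti-P-4E-BP1 TR-FRET read; IC50 from 4-parameter Hill fit.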

OVCAR3 p-RB = test: pRB ICW Assay in OVCAR3 Cells; type: cell-based; details: Homo sapiens, OVCAR-3, incubated with compound for 2 hours
In short: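 OVCAR3 cells were treated 2 h at 37° C. with a 9-point half-log compound series, duplicate wells, with 10 μM reference compound as maximum inhibition. Fixed, permeabilized cells were stained with anti-phospho-RB plus DRAQ5 and imaged at 700/800 nm (In-Cell Western).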

CC(O)c1cnc(-c2nc(NC3CCN(S(=O)(=O)c4cn(C)cn4)CC3)ncc2C(F)(F)F)s1 (stereo not drawn) [Example 63, 1-(2-(2-((1-((1-methyl-1H-imidazol-4-yl)sulfonyl)piperidin-4-yl)amino)-5-(trifluoromethyl)pyrimidin-4-yl)thiazol-5-yl)ethan-1-ol]
IC50 (CDK2/Cyclin E2): ≤ 100 nM
IC50 (CDK4/Cyclin D1): ≤ 100 nM
IC50 (OVCAR3 p-RB): ≤ 100 nM

Cc1cnc(-c2nc(N[C@H]3CCN(S(=O)(=O)c4cn(C)cn4)C[C@H]3C)ncc2C(F)(F)F)s1 [Example 64, N-((3R,4S)-3-methyl-1-((1-methyl-1H-imidazol-4-yl)sulfonyl)piperidin-4-yl)-4-(5-methylthiazol-2-yl)-5-(trifluoromethyl)pyrimidin-2-amine]
IC50 (CDK2/Cyclin E2): ≤ 100 nM
IC50 (CDK4/Cyclin D1): 100 to 500 nM
IC50 (OVCAR3 p-RB): > 500 nM

Cc1cnc(-c2nc(NC3CCN(S(C)(=O)=O)CC3)ncc2C(F)(F)F)s1 [Example 65, N-(1-(methylsulfonyl)piperidin-4-yl)-4-(5-methylthiazol-2-yl)-5-(trifluoromethyl)pyrimidin-2-amine]
IC50 (CDK2/Cyclin E2): ≤ 100 nM
IC50 (CDK4/Cyclin D1): ≤ 100 nM
IC50 (OVCAR3 p-RB): 100 to 500 nM

Cn1cnc(S(=O)(=O)N2CC[C@@H](Nc3ncc(C(F)(F)F)c(-c4cc(C(N)=O)ns4)n3)[C@H](F)C2)c1 [Example 66, 5-(2-(((3R,4R)-3-fluoro-1-((1-methyl-1H-imidazol-4-yl)sulfonyl)piperidin-4-yl)amino)-5-(trifluoromethyl)pyrimidin-4-yl)isothiazole-3-carboxamide]
IC50 (CDK2/Cyclin E2): ≤ 100 nM
IC50 (CDK4/Cyclin D1): ≤ 100 nM
IC50 (OVCAR3 p-RB): ≤ 100 nM

Cn1cnc(S(=O)(=O)N2CC[C@H](Nc3ncc(C(F)(F)F)c(-c4cc(C(N)=O)ns4)n3)[C@H](F)C2)c1 [Example 67, 5-(2-(((3R,4S)-3-fluoro-1-((1-methyl-1H-imidazol-4-yl)sulfonyl)piperidin-4-yl)amino)-5-(trifluoromethyl)pyrimidin-4-yl)isothiazole-3-carboxamide]
IC50 (CDK2/Cyclin E2): ≤ 100 nM
IC50 (CDK4/Cyclin D1): ≤ 100 nM
IC50 (OVCAR3 p-RB): ≤ 100 nM

CC(O)c1sc(-c2nc(N[C@H]3CCN(S(=O)(=O)c4c[nH]cn4)C[C@H]3C)ncc2C(F)(F)F)cc1C#N (stereo partly drawn) [Example 68, 5-(2-(((3R,4S)-1-((1H-imidazol-4-yl)sulfonyl)-3-methylpiperidin-4-yl)amino)-5-(trifluoromethyl)pyrimidin-4-yl)-2-(1-hydroxyethyl)thiophene-3-carbonitrile]
IC50 (CDK2/Cyclin E2): ≤ 100 nM
IC50 (CDK4/Cyclin D1): 100 to 500 nM
IC50 (OVCAR3 p-RB): 100 to 500 nM

Cn1cc(S(=O)(=O)N2CCC(Nc3ncc(C(F)(F)F)c(-c4cc(C#N)cs4)n3)CC2)cn1 [Example 69, 5-(2-((1-((1-Methyl-1H-pyrazol-4-yl)sulfonyl)piperidin-4-yl)amino)-5-(trifluoromethyl)pyrimidin-4-yl)thiophene-3-carbonitrile]
IC50 (CDK2/Cyclin E2): ≤ 100 nM
IC50 (CDK4/Cyclin D1): 100 to 500 nM
IC50 (OVCAR3 p-RB): ≤ 100 nM

Cc1sc(-c2nc(NC3CCN(S(C)(=O)=O)CC3)ncc2C(F)(F)F)cc1C(N)=O [Example 70, 2-methyl-5-(2-((1-(methylsulfonyl)piperidin-4-yl)amino)-5-(trifluoromethyl)pyrimidin-4-yl)thiophene-3-carboxamide]
IC50 (CDK2/Cyclin E2): ≤ 100 nM
IC50 (CDK4/Cyclin D1): ≤ 100 nM
IC50 (OVCAR3 p-RB): ≤ 100 nM

Cc1sc(-c2nc(NC3CCN(S(=O)(=O)c4cnn(C)c4)CC3)ncc2C(F)(F)F)cc1C(N)=O [Example 71, 2-methyl-5-(2-((1-((1-methyl-1H-pyrazol-4-yl)sulfonyl)piperidin-4-yl)amino)-5-(trifluoromethyl)pyrimidin-4-yl)thiophene-3-carboxamide]
IC50 (CDK2/Cyclin E2): ≤ 100 nM
IC50 (CDK4/Cyclin D1): ≤ 100 nM
IC50 (OVCAR3 p-RB): ≤ 100 nM

Cc1sc(-c2nc(NC3CCN(S(=O)(=O)c4cnn(C)c4)CC3)ncc2C(F)(F)F)cc1C#N [Example 72, 2-methyl-5-(2-((1-((1-methyl-1H-pyrazol-4-yl)sulfonyl)piperidin-4-yl)amino)-5-(trifluoromethyl)pyrimidin-4-yl)thiophene-3-carbonitrile]
IC50 (CDK2/Cyclin E2): ≤ 100 nM
IC50 (CDK4/Cyclin D1): ≤ 100 nM
IC50 (OVCAR3 p-RB): ≤ 100 nM

CS(=O)(=O)N1CCC(Nc2ncc(C(F)(F)F)c(-c3cc(C(N)=O)cs3)n2)CC1 [Example 73, 5-(2-((1-(methylsulfonyl)piperidin-4-yl)amino)-5-(trifluoromethyl)pyrimidin-4-yl)thiophene-3-carboxamide]
IC50 (CDK2/Cyclin E2): ≤ 100 nM
IC50 (CDK4/Cyclin D1): ≤ 100 nM
IC50 (OVCAR3 p-RB): ≤ 100 nM

Cn1cc(S(=O)(=O)N2CCC(Nc3ncc(C(F)(F)F)c(-c4cc(C(N)=O)cs4)n3)CC2)cn1 [Example 74, 5-(2-((1-((1-methyl-1H-pyrazol-4-yl)sulfonyl)piperidin-4-yl)amino)-5-(trifluoromethyl)pyrimidin-4-yl)thiophene-3-carboxamide]
IC50 (CDK2/Cyclin E2): ≤ 100 nM
IC50 (CDK4/Cyclin D1): ≤ 100 nM
IC50 (OVCAR3 p-RB): ≤ 100 nM

COc1cc(-c2nc(NC3CCN(S(=O)(=O)c4cn(C)cn4)CC3)ncc2C(F)(F)F)sc1C [Example 75, 4-(4-methoxy-5-methylthiophen-2-yl)-N-(1-((1-methyl-1H-imidazol-4-yl)sulfonyl)piperidin-4-yl)-5-(trifluoromethyl)pyrimidin-2-amine]
IC50 (CDK2/Cyclin E2): ≤ 100 nM
IC50 (CDK4/Cyclin D1): > 500 nM
IC50 (OVCAR3 p-RB): > 500 nM

COc1cc(-c2nc(NC3CCN(S(C)(=O)=O)CC3)ncc2C(F)(F)F)sc1C [Example 76, 4-(4-methoxy-5-methylthiophen-2-yl)-N-(1-(methylsulfonyl)piperidin-4-yl)-5-(trifluoromethyl)pyrimidin-2-amine]
IC50 (CDK2/Cyclin E2): 100 to 500 nM
IC50 (CDK4/Cyclin D1): 100 to 500 nM
IC50 (OVCAR3 p-RB): > 500 nM

Cc1cc(-c2nc(NC3CCN(S(=O)(=O)c4cnn(C)c4)CC3)ncc2C(F)(F)F)sn1 [Example 77, N-(1-((1-methyl-1H-pyrazol-4-yl)sulfonyl)piperidin-4-yl)-4-(3-methylisothiazol-5-yl)-5-(trifluoromethyl)pyrimidin-2-amine]
IC50 (CDK2/Cyclin E2): ≤ 100 nM
IC50 (CDK4/Cyclin D1): > 500 nM
IC50 (OVCAR3 p-RB): > 500 nM

Cc1cc(-c2nc(NC3CCN(S(C)(=O)=O)CC3)ncc2C(F)(F)F)sn1 [Example 78, 4-(3-methylisothiazol-5-yl)-N-(1-(methylsulfonyl)piperidin-4-yl)-5-(trifluoromethyl)pyrimidin-2-amine]
IC50 (CDK2/Cyclin E2): 100 to 500 nM
IC50 (CDK4/Cyclin D1): > 500 nM
IC50 (OVCAR3 p-RB): > 500 nM

Cc1sc(-c2nc(NC3CCN(S(=O)(=O)c4cnn(C)c4)CC3)ncc2C(F)(F)F)cc1C(F)F [Example 79, 4-(4-(difluoromethyl)-5-methylthiophen-2-yl)-N-(1-((1-methyl-1H-pyrazol-4-yl)sulfonyl)piperidin-4-yl)-5-(trifluoromethyl)pyrimidin-2-amine]
IC50 (CDK2/Cyclin E2): ≤ 100 nM
IC50 (CDK4/Cyclin D1): ≤ 100 nM
IC50 (OVCAR3 p-RB): 100 to 500 nM

Cc1sc(-c2nc(NC3CCN(S(C)(=O)=O)CC3)ncc2C(F)(F)F)cc1C(F)F [Example 80, 4-(4-(difluoromethyl)-5-methylthiophen-2-yl)-N-(1-(methylsulfonyl)piperidin-4-yl)-5-(trifluoromethyl)pyrimidin-2-amine]
IC50 (CDK2/Cyclin E2): ≤ 100 nM
IC50 (CDK4/Cyclin D1): ≤ 100 nM
IC50 (OVCAR3 p-RB): 100 to 500 nM

CC(=O)c1cc(-c2nc(NC3CCN(S(=O)(=O)c4cnn(C)c4)CC3)ncc2C(F)(F)F)sc1C [Example 81, 1-(2-methyl-5-(2-((1-((1-methyl-1H-pyrazol-4-yl)sulfonyl)piperidin-4-yl)amino)-5-(trifluoromethyl)pyrimidin-4-yl)thiophen-3-yl)ethan-1-one]
IC50 (CDK2/Cyclin E2): ≤ 100 nM
IC50 (CDK4/Cyclin D1): ≤ 100 nM
IC50 (OVCAR3 p-RB): ≤ 100 nM

COCc1cc(-c2nc(NC3CCN(S(=O)(=O)c4cnn(C)c4)CC3)ncc2C(F)(F)F)sc1C [Example 82, 4-(4-(methoxymethyl)-5-methylthiophen-2-yl)-N-(1-((1-methyl-1H-pyrazol-4-yl)sulfonyl)piperidin-4-yl)-5-(trifluoromethyl)pyrimidin-2-amine]
IC50 (CDK2/Cyclin E2): ≤ 100 nM
IC50 (CDK4/Cyclin D1): 100 to 500 nM
IC50 (OVCAR3 p-RB): > 500 nM

Cc1sc(-c2nc(NC3CCN(S(C)(=O)=O)CC3)ncc2C(F)(F)F)cc1C#N [Example 83, 2-methyl-5-(2-((1-(methylsulfonyl)piperidin-4-yl)amino)-5-(trifluoromethyl)pyrimidin-4-yl)thiophene-3-carbonitrile]
IC50 (CDK2/Cyclin E2): ≤ 100 nM
IC50 (CDK4/Cyclin D1): ≤ 100 nM
IC50 (OVCAR3 p-RB): 100 to 500 nM

CS(=O)(=O)N1CCC(Nc2ncc(C(F)(F)F)c(-c3cc(C(N)=O)ns3)n2)CC1 [Example 84, 5-(2-((1-(methylsulfonyl)piperidin-4-yl)amino)-5-(trifluoromethyl)pyrimidin-4-yl)isothiazole-3-carboxamide]
IC50 (CDK2/Cyclin E2): ≤ 100 nM
IC50 (CDK4/Cyclin D1): ≤ 100 nM
IC50 (OVCAR3 p-RB): ≤ 100 nM

Cc1sc(-c2nc(N[C@H]3CCN(S(=O)(=O)c4cnn(C)c4)C[C@H]3C)ncc2C(F)(F)F)cc1C#N [Example 85, 2-methyl-5-(2-(((3R,4S)-3-methyl-1-((1-methyl-1H-pyrazol-4-yl)sulfonyl)piperidin-4-yl)amino)-5-(trifluoromethyl)pyrimidin-4-yl)thiophene-3-carbonitrile]
IC50 (CDK2/Cyclin E2): ≤ 100 nM
IC50 (CDK4/Cyclin D1): 100 to 500 nM
IC50 (OVCAR3 p-RB): 100 to 500 nM

Cc1sc(-c2nc(N[C@H]3CCN(S(=O)(=O)c4c[nH]cn4)C[C@H]3C)ncc2C(F)(F)F)cc1C#N [Example 86, 5-(2-(((3R,4S)-1-((1H-imidazol-4-yl)sulfonyl)-3-methylpiperidin-4-yl)amino)-5-(trifluoromethyl)pyrimidin-4-yl)-2-methylthiophene-3-carbonitrile]
IC50 (CDK2/Cyclin E2): ≤ 100 nM
IC50 (CDK4/Cyclin D1): > 500 nM
IC50 (OVCAR3 p-RB): > 500 nM
